According to PMC7238232, “Acamprosate Is a Substrate of the Human Organic Anion Transporter (OAT) 1 without OAT3 Inhibitory Properties: Implications for Renal Acamprosate Secretion and Drug–Drug Interactions” (Pharmaceutics, 2020):
Like-named read-outs stand apart in the source and are kept apart here. Marks after values point to notes of the source that are not given here.

Tests used:
OAT1 = molecular target: T1, OAT1 (Homo sapiens, UniProt Q4U2R8); experiment: Drug-drug interaction (DDI) index calculation, OAT1; settings: for DDI Index, PAH: acamprosate
T1 sequence (Q4U2R8 1-563): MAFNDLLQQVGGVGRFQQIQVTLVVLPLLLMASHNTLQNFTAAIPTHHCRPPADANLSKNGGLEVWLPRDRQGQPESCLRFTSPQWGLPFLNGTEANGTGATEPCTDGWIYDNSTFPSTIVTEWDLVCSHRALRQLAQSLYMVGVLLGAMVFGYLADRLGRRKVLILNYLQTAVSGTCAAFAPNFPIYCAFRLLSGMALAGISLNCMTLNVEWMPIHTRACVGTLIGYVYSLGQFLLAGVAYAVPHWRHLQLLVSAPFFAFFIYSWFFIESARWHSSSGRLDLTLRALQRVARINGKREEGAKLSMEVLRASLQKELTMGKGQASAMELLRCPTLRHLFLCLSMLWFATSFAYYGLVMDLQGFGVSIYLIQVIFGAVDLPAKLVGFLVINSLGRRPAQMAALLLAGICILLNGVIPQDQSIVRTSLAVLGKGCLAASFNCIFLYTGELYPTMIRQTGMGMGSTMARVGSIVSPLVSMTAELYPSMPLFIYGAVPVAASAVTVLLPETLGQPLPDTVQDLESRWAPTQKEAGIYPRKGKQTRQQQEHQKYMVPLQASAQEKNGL
Source text: Input values for Cmax,u or C0,u calculated from clinical studies are listed in Appendix B, Table A1.

[1] = rats, cited from earlier work
ASBT = settings: Caco-2 cells, preliminary data; cited from earlier work
[2] = Clinical pharmacokinetics in humans (literature); settings: for Cmax,u: acamprosate, calculated

## CC(=O)NCCCS(=O)(=O)O [acamprosate, acetylhomotaurinate]
OAT1; IV bolus, 333 mg
  DDI Index, PAH: 0.12–0.53 *
OAT1; IV bolus, 666 mg
  DDI Index, PAH: 0.17–0.75 *
OAT1; IV bolus, 710 mg
  DDI Index, PAH: 0.19–0.80 *
OAT1; IV bolus, 1420 mg
  DDI Index, PAH: 0.40–1.69 *
OAT1; IV bolus, 2130 mg
  DDI Index, PAH: 0.62–2.68 *
OAT1; oral solution, 333 mg
  DDI Index, PAH: 0.00–0.01
OAT1; oral solution, 666 mg
  DDI Index, PAH: 0.00–0.01
OAT1; oral solution, 1332 mg
  DDI Index, PAH: 0.00–0.02
OAT1; oral solution, 2664 mg
  DDI Index, PAH: 0.01–0.03
OAT1; oral tablet, 666 mg
  DDI Index, PAH: 0.00–0.00
OAT1; oral tablet, 1332 mg
  DDI Index, PAH: 0.001–0.01
OAT1; oral administration of inhibitor, range over doses
  DDI index, substrate PAH: 0.001–0.008
[1]; 9.3 mg/kg acamprosate i.v. with 33.3 mg/kg probenecid
  CLR, % of the initial CLR: 59%
[1]; 9.3 mg/kg acamprosate i.v. with 66.6 mg/kg probenecid
  CLR, % of the initial CLR: 45%
[1]
  unbound acamprosate CLR with probenecid, compared to control: 0.45 fold
[1]; compared to control
  increase in acamprosate AUC0∞ caused by probenecid: 2.2 fold
[1]; intravenous 9.3 mg/kg acamprosate, without probenecid
  renal clearance (CLR): 0.35 L/h
ASBT
  inhibition of substrate transport via ASBT: did not inhibit
[2]; IV bolus, 333 mg
  Cmax,u: 153 ± 38 µM
[2]; IV bolus, 666 mg
  Cmax,u: 214 ± 10 µM
[2]; IV bolus, 710 mg
  Cmax,u: 230 ± 64 µM
[2]; IV bolus, 1420 mg
  Cmax,u: 486 ± 106 µM
[2]; IV bolus, 2130 mg
  Cmax,u: 768 ± 149 µM
[2]; oral solution, 333 mg
  Cmax,u: 1.8 ± 0.8 µM
[2]; oral solution, 666 mg
  Cmax,u: 4.3 ± 1.4 µM
[2]; oral solution, 1332 mg
  Cmax,u: 5.0 ± 1.7 µM
[2]; oral solution, 2664 mg
  Cmax,u: 8.6 ± 4.1 µM
[2]; oral tablet, 666 mg
  Cmax,u: 1.4 ± 1.1 µM
[2]; oral tablet, 1332 mg
  Cmax,u: 1.5 ± 0.1 µM
[2]; estimated from CLR and GFR·fu
  contribution of active secretion to total CLR: more than 44%
